Assay results published in patent publication US20260232753A1, “COMPOSITION FOR TREATING MACULAR DEGENERATION COMPRISING NOVEL PEPTIDE” (EYEBIOKOREA, INC., priority 2021, published 2026).
*1 amine or outer side, *2 acyl side, *3 side chain or, on linkers, in order; H or OH if unused. Where no end group is shown, it is not given here. [ ]: non-standard residue; d: D form. The star is where a group is joined. Pro(trans-4-NH2) = O=C([C@@H]1C[C@@H](N[*:3])CN1[*:1])[*:2]; Pro(4-methylene) = C=C1CN[C@H](C(=O)O)C1; Pro(cis-4-F) = O=C(O)[C@@H]1C[C@H](F)CN1; Pro(4,4-F2) = O=C(O)[C@@H]1CC(F)(F)CN1; Pro(4,4-Me2) = CC1(C)CN[C@H](C(=O)O)C1; Hyp = O=C(O)[C@@H]1C[C@@H](O)CN1; dHyp = O=C(O)[C@H]1C[C@H](O)CN1; Phg = N[C@H](C(=O)O)c1ccccc1; OiPr = CC(C)O*

Tests used:
[1] = test system: choroidal neovascularization (CNV); experiment: Inhibition of choroidal neovascularization: fluorescence value (CTF) at the CNV site by FFA, laser-induced CNV model, intravitreal injection; assay type: in vivo, C57BL/6 mice; details: ten days after administration; for CTF (corrected total fluorescence) value: laser-induced CNV, 1 μL intravitreal, peptide 10 mg/mL or aflibercept 20 mg/mL, lower CTF = less CNV; for CNV inhibitory efficacy from fluorescence value of the CNV site (in words): intravitreal
Excerpt: (§1) The CNV animal model used in the present invention is a mouse model in which lesions are induced by irradiating a laser to the choroid of C57BL/6 mice using a laser slit system. The laser-induced CNV model, first described in 1979, uses photocoagulation to disturb Bruch's membrane to induce the growth of choroidal neovascularization into the retina area, and it is similar in development to neovascular disease in the human retina, that is, wet macular degeneration (wet AMD), in that neovascularity arises from the choroid. In addition, the laser-induced CNV model was successful in predicting the clinical efficacy of anti-vascular endothelial growth factor (VEGF) treatment for neovascular AMD, and is an animal model used in the development stage of existing therapeutic agents (Gong Y, Li J, Sun Y, Fu Z, Liu C H, Evans L, et al. (2015) Optimization of an Image-Guided Laser-Induced Choroidal Neovascularization Model in Mice. PLOS ONE 10 (7)).
(§2) In order to evaluate the efficacy of the peptide of the present invention to inhibit the choroidal neovascularization (CNV), an experiment was performed as follows.
(§3) The eyes of 7-8 week old C57BL/6 mice were instilled with a mydriatic agent to dilate the pupils, and the mice were anesthetized by intraperitoneal injection of ketamine (50 mg/kg) and rompun (23.32 mg/kg). A slit-lamp laser injection system was used to irradiate the laser to the choroid of each eye of the mouse four times in the 12 o'clock, 3 o'clock, 6 o'clock, and 9 o'clock directions. At this time, the laser irradiation conditions were 532 nm, 80 msec, and 240 mW. Immediately after laser irradiation, 1 μL of each peptide at a concentration of 10 mg/mL or aflibercept at a concentration of 20 mg/mL, which was dissolved in PBS, was injected into the vitreous body using a syringe. Ten days after drug administration, the mice were anesthetized, and 2% fluorescein was administered to the abdominal cavity to stain blood vessels. The retina was photographed 2 to 3 minutes after fluorescein administration. The size and fluorescence value of CNV lesions induced by laser were measured using the ImageJ program, and in order to reduce the differences between subjects, the CTF (corrected total fluorescence) was calculated by removing the background, and the values of each group were compared. The results of all tests are expressed as mean±standard deviation, and significance was verified using one-way ANOVA and Kruskal-wallis test.

[2] = test system: choroidal neovascularization (CNV); experiment: Inhibition of choroidal neovascularization: optical coherence tomography, size of CNV lesion, intravitreal injection; assay type: in vivo, C57BL/6 mice; details: laser-induced CNV; 1 μL intravitreal, peptide 10 mg/mL or aflibercept 20 mg/mL; ten days after administration; OCT
Excerpt: as §1, §2
as §3, with “and” for “and 2% fluorescein was administered to”, “the” for “the abdominal cavity to stain blood vessels. The retina was photographed 2 to 3 minutes after fluorescein administration. The size and fluorescence value of”, “calculated and expressed as μm^2” for “measured”, “program” for “program, and in order to reduce the differences between subjects, the CTF (corrected total fluorescence) was calculated”, “transmitting an OCT beam for” for “removing the background, and the values of”, “burn.” for “group were compared.”

[3] = Stability of the peptide: content analysis by HPLC in aqueous solution under harsh conditions; assay type: physicochemical
Procedure: In order to evaluate the stability of the peptide of the present invention, an experiment was performed as follows.
The stability of the peptide was confirmed through content analysis in an aqueous solution at 40° C., 75% humidity, and harsh conditions, and was analyzed using HPLC under the following conditions. • Analysis column: C18 (4.6 Y 250 mm, 5 μm, YMC Hydrosphere) • Analysis wavelength: ultraviolet absorption spectrophotometer (210 nm) • Injection volume/Flow rate: 10 μL/0.8 mL/min • Column temperature: 45° C. • Mobile phase: 0.1 M phosphate buffer methanol mixture (83:17)

Substance	CTF (corrected total fluorescence) value [1]	other results
4,4-difluoro-Pro-Gly-Gln-Asp-Gly ([Pro(4,4-F2)]GQDG) [Example 24]	+ (+: 300,000 to 800,000)	
4,4-difluoro-Pro-Gly-Gln-Asp-Gly-Leu ([Pro(4,4-F2)]GQDGL) [Example 29]	+ (+: 300,000 to 800,000)	
4,4-dimethyl Pro-Gly-Gln-Asp-Gly ([Pro(4,4-Me2)]GQDG) [Example 26]	+ (+: 300,000 to 800,000)	
4,4-dimethyl Pro-Gly-Gln-Asp-Gly-Leu ([Pro(4,4-Me2)]GQDGL) [Example 31]	+ (+: 300,000 to 800,000)	
4,4-dimethyl Pro-Gly-Gln-Asp-Gly-Leu-Ala ([Pro(4,4-Me2)]GQDGLA; also: X1: 4,4-dimethyl-Pro (name) or 4-methylene-L-proline) [Example 35]	+ (+: 300,000 to 800,000)	
4-methylene-Pro-Gly-Gln-Asp-Gly ([Pro(4-methylene)]GQDG) [Example 25]	+ (+: 300,000 to 800,000)	
4-methylene-Pro-Gly-Gln-Asp-Gly-Leu ([Pro(4-methylene)]GQDGL) [Example 30]	+ (+: 300,000 to 800,000)	
4-methylene-Pro-Gly-Gln-Asp-Gly-Leu-Ala ([Pro(4-methylene)]GQDGLA) [Example 34]	+ (+: 300,000 to 800,000)	Size of lesion [2]: 8,603 μm^2
D-Hyp-Gly-Gln-Asp-Gly-Leu ([dHyp]GQDGL) [Example 13]	++ (++: 200,000 to 300,000)	CNV inhibitory efficacy from fluorescence value of the CNV site (in words) [1]: very excellent inhibitory efficacy; Size of lesion [2]: 6,395 μm^2
D-Hyp-Gly-Gln-Asp-Gly-Leu-Ala ([dHyp]GQDGLA) [Example 32]	+ (+: 300,000 to 800,000)	
Hyp-Gly-Gln-Asp-Ala ([Hyp]GQDA) [Example 3]	+ (+: 300,000 to 800,000)	Size of lesion [2]: 6,491 μm^2
Hyp-Gly-Gln-Asp-Ala-Leu ([Hyp]GQDAL) [Example 9]	++ (++: 200,000 to 300,000)	CNV inhibitory efficacy from fluorescence value of the CNV site (in words) [1]: very excellent inhibitory efficacy
Hyp-Gly-Gln-Asp-Ala-Leu-Ala ([Hyp]GQDALA) [Example 16]	+ (+: 300,000 to 800,000)	
Hyp-Gly-Gln-Asp-Gly-D-Leu ([Hyp]GQDG[dL]) [Example 12]	+ (+: 300,000 to 800,000)	
Hyp-Gly-Gln-Asp-Gly-D-Leu-Ala ([Hyp]GQDG[dL]A) [Example 20]	+ (+: 300,000 to 800,000)	
Hyp-Gly-Gln-Asp-Gly-Leu-Ala-IPE ([Hyp]GQDGLA-OiPr) [Example 17]	++ (++: 200,000 to 300,000)	CNV inhibitory efficacy from fluorescence value of the CNV site (in words) [1]: very excellent inhibitory efficacy; Size of lesion [2]: 5,978 μm^2
Hyp-Gly-Gln-Asp-Gly-Leu-D-Ala ([Hyp]GQDGL[dA]) [Example 21]	+ (+: 300,000 to 800,000)	
Hyp-Gly-Gln-Asp-Leu ([Hyp]GQDL) [Example 2]	+ (+: 300,000 to 800,000)	
Hyp-Gly-Gln-Asp-Leu-Leu ([Hyp]GQDLL) [Example 8]	++ (++: 200,000 to 300,000)	CNV inhibitory efficacy from fluorescence value of the CNV site (in words) [1]: very excellent inhibitory efficacy
Hyp-Gly-Gln-Asp-Leu-Leu-Ala ([Hyp]GQDLLA) [Example 15]	++ (++: 200,000 to 300,000)	CNV inhibitory efficacy from fluorescence value of the CNV site (in words) [1]: very excellent inhibitory efficacy; Size of lesion [2]: 6,672 μm^2

Substance	CTF (corrected total fluorescence) value [1]	other results
Hyp-Gly-Gln-Asp-Val ([Hyp]GQDV) [Example 1]	+++ (+++: 100,000 to 200,000)	CNV inhibitory efficacy from fluorescence value of the CNV site (in words) [1]: very excellent inhibitory efficacy; Size of lesion [2]: 5,636 μm^2
Hyp-Gly-Gln-Asp-Val-Leu ([Hyp]GQDVL) [Example 7]	++ (++: 200,000 to 300,000)	CNV inhibitory efficacy from fluorescence value of the CNV site (in words) [1]: very excellent inhibitory efficacy; Size of lesion [2]: 6,046 μm^2
Hyp-Gly-Gln-Asp-Val-Leu-Ala ([Hyp]GQDVLA) [Example 14]	++ (++: 200,000 to 300,000)	CNV inhibitory efficacy from fluorescence value of the CNV site (in words) [1]: very excellent inhibitory efficacy; Size of lesion [2]: 5,407 μm^2
Hyp-Gly-Gln-D-Asp-Gly-Leu ([Hyp]GQ[dD]GL) [Example 11]	+ (+: 300,000 to 800,000)	
Hyp-Gly-Gln-Glu-Gly ([Hyp]GQEG) [Example 36]	+ (+: 300,000 to 800,000)	
Hyp-Gly-Gln-Glu-Leu-Leu ([Hyp]GQELL) [Example 38]	+ (+: 300,000 to 800,000)	
Hyp-Gly-Gln-Glu-Val-Leu ([Hyp]GQEVL) [Example 39]	+ (+: 300,000 to 800,000)	
Hyp-Gly-Gln-Glu-phenyl-Gly-Leu-Ala ([Hyp]GQE[Phg]LA) [Example 45]	+ (+: 300,000 to 800,000)	Content after 7 days ([3]; 40° C., 75% humidity, 7 days): 98.147%; Decrease rate ([3]; 40° C., 75% humidity, after 7 days): 0.439%; Initial content ([3]; HPLC, initial): 98.586%
[Hyp]GQ[dD]G [Example 5]	+ (+: 300,000 to 800,000)	
[Hyp]GQ[dD]GLA [Example 19]	+ (+: 300,000 to 800,000)	
[Hyp]G[dQ]DG [Example 4]	+ (+: 300,000 to 800,000)	
[Hyp]G[dQ]DGL [Example 10]	+ (+: 300,000 to 800,000)	
[Hyp]G[dQ]DGLA [Example 18]	+ (+: 300,000 to 800,000)	
[dHyp]GQDG [Example 6]	+ (+: 300,000 to 800,000)	
cis-4F-Pro-Gly-Gln-Asp-Gly ([Pro(cis-4-F)]GQDG) [Example 22]	+ (+: 300,000 to 800,000)	
cis-4F-Pro-Gly-Gln-Asp-Gly-Leu ([Pro(cis-4-F)]GQDGL) [Example 27]	+++ (+++: 100,000 to 200,000)	CNV inhibitory efficacy from fluorescence value of the CNV site (in words) [1]: very excellent inhibitory efficacy
cis-4F-Pro-Gly-Gln-Asp-Gly-Leu-Ala ([Pro(cis-4-F)]GQDGLA) [Example 33]	+ (+: 300,000 to 800,000)	
trans-4NH2-Pro-Gly-Gln-Asp-Gly ([Pro(trans-4-NH2)]GQDG) [Example 23]	++ (++: 200,000 to 300,000)	CNV inhibitory efficacy from fluorescence value of the CNV site (in words) [1]: very excellent inhibitory efficacy
trans-4NH2-Pro-Gly-Gln-Asp-Gly-Leu ([Pro(trans-4-NH2)]GQDGL) [Example 28]	+ (+: 300,000 to 800,000)	
